We go through three compounds from ChEMBL document CHEMBL5260836, “Combating Autoimmune Diseases With Retinoic Acid Receptor-Related Orphan Receptor-γ (RORγ or RORc) Inhibitors: Hits and Misses” (J Med Chem, 2018).

Experiment [1] concerns the target T1, Nuclear receptor ROR-gamma (Homo sapiens, UniProt P51449).
T1 sequence (P51449 whole entry): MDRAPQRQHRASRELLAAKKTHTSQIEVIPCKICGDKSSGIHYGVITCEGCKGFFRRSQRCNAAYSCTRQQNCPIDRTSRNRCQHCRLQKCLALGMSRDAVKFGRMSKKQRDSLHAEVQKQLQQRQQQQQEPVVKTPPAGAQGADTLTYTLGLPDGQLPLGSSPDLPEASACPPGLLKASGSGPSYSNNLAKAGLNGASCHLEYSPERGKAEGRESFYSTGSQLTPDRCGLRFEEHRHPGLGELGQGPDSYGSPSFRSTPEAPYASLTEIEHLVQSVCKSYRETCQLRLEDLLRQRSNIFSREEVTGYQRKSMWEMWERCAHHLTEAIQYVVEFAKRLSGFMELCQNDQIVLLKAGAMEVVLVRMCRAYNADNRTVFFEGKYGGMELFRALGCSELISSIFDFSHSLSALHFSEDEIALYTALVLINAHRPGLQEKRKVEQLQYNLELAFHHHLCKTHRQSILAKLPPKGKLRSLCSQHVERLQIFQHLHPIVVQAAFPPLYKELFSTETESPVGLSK
As to the kind of experiment: Inhibition of GAL4-RORgammat LBD (unknown origin). The format is cell-based, HEK293.

Experiment [2] has as its target T1, Nuclear receptor ROR-gamma. As to the kind of experiment: Inhibition of RORgammat LBD (unknown origin) expressed in Sf21 cells assessed as fluorescence signal by TR-FRET assay. A general note: Time-resolved FRET reads energy transfer from a long-lived donor to a nearby acceptor.
Experiment [3] has as its target T1, Nuclear receptor ROR-gamma. As to the kind of experiment: Inhibition of biotinylated human RORgammat by FRET assay.
In experiment [4] the target is T1, Nuclear receptor ROR-gamma. As to the kind of experiment: Inverse agonist activity at GAL4-RORgammat LBD (unknown origin) expressed in HEK293 cells measured after 18 to 24 hrs by nuclear receptor assay. The format is cell-based.

`Cc1cc(C(F)(F)F)cc2c1cc(Cc1c(Cl)ccc(C(=O)N3CCN(C4COC4)CC3)c1Cl)n2C`: in experiment [1], the half-maximal inhibitory concentration (IC50) (as a rule, the concentration that gives 50% inhibition) is under 100 nM.
`COc1cc2c(cc1N1CCOCC1)CC(Cc1cccc(C(F)(F)F)c1)C2=O` (centres undefined): the half-maximal inhibitory concentration (IC50) in experiment [2] is under 500 nM.
Turning to `Cc1ccc([C@H](NC(=O)Cc2ccc3oc([C@@H](O)c4c(C)noc4C)cc3c2)c2ccccc2)c(C)c1`, the figures for the 50% inhibitory concentration (IC50) in experiment [3] and in experiment [4] were 5 nM and 17 nM, respectively.
